From patent publication US9486502B2, “Methods of administering interferon gamma to absorb fluid from the subretinal space” (The United States of America, as represented by the …, priority 2008, dated 2016)

Legend:
[1] = tested on: hfRPE cells; assay: BrdU incorporation assay, hfRPE proliferation; format: cell-based, human; settings: for effect on the IFNγ effect on hfRPE proliferation: added one hour prior to IFNγ; for effect on hfRPE proliferation (BrdU incorporation): 0.5-80 ng/ml
Experimental: BrdU incorporation was performed as described in Li, R. et al., 2007, Invest Ophthalmol Vis Sci, 48, 5722-5732, incorporated by reference in its entirety herein. IFNγ, TNFα, and IL-1β were obtained from Peprotech, Rocky Hill, N.J., and Universal Type I Interferon (cat: 11200-1) or human interferon beta la were from PBL biomedical laboratories (New Brunswick, N.J.). Cumulative effects were measured by adding VEGF165, EGF and bFGF (Peprotech), and PDGF-BB (R & D Systems) with IFNγ. Anti-human IFNγ R1 blocking antibody (R & D Systems, Minneapolis, Minn.), JAK inhibitor I, AG490, or JAK3 inhibitor II (EMD Biosciences, Gibbstown, N.J.) was added to the cells one hour prior to the addition of IFNγ. SFM was used as the negative control and SFM supplemented with 5% serum was used as positive control. After treatment for 48 hours, RPE cells were incubated with BrdU for 24 hours. The proliferation rate was evaluated using a Cell proliferation ELISA BrdU Kit (Roche, Ind.). Quadruplicate wells were used for each condition and the experiments were repeated at least two times using cell cultures from different donors. Cell viability was evaluated using a Live/Dead Viability/Cytotoxicity Kit (Invitrogen).

[2] = tested on: hfRPE monolayers; assay: fluid transport (JV, TEP, RT) across hfRPE monolayers in modified Üssing chamber; format: cell-based, human; settings: for effect on JV after P38 MAPK inhibitor: CFTR inhibitor added to basal bath after P38 MAPK inhibitor; for effect on the effects of IFNγ on JV: Rp-8-Br-cAMPS 2 μM pretreatment
Text: Confluent monolayers of hfRPE cultured on transwells were mounted in a modified Üssing chamber and transepithelial water flow measurements (JV) were made with a capacitance probe technique as described previously in Maminishkis, A., et al., Invest Ophthalmol Vis Sci, 2006, 47, 3612-3624; Shi, G., et al., Invest Ophthalmol Vis Sci, 2008, 49, 4620-4630; Edelman, J. L., et al., Invest Ophthalmol Vis Sci, 1991, 32, 3033-3040; Jiang, C., et al., Science, 1993, 262, 424-427; and Maminishkis, A., et al., Invest Ophthalmol Vis Sci, 2002, 43, 3555-3566, each incorporated herein by reference in its entirety.
Tissue viability was ascertained by recording transepithelial potential (TEP) and total tissue resistance (RT). It should be noted that the solution composition changes in this chamber were relatively slow (≈1-2 chamber volumes per minute) and the data sampling rate was once per minute, more than two orders of magnitude slower than the sampling rate in the electrophysiology chamber (see below). Therefore it was not possible to record fast changes, in seconds or minutes, in JV, TEP, or RT. After addition of IFNγ to the apical or basal baths, steady-state JV, TEP, and RT were recorded for 20-30 minutes. In control experiments, successive additions of IFNγ were made to test for the repeatability and reversibility of responses. To block IFNγ effects, RPE cells were incubated for 30-60 minutes with a blocking antibody against IFNγ R1, JAK inhibitor I, PKA inhibitors (H-89, EMD Biosciences; RP-8-Br-cAMPS, Sigma-Aldrich), nitric oxide synthase inhibitor (aminoguanidine hydrochloride, Sigma-Aldrich), P38 MAPK inhibitors (SB203580 or SB20290), or CHX. Other components of this signaling pathway were studied using P38 MAPK inhibitors (SB203580 and SB202190). Relatively specific Cl channel inhibitors, CFTRinh-172 or DIDS (EMD Biosciences, La Jolla, Calif.), were used to block cAMP or Ca^2+-activated Cl channels; experiments with CFTRinh-172 were performed as described in Muanprasat, C., et al., J Gen Physiol, 2004, 124, 125-137, incorporated herein by reference in its entirety. In chronic experiments, paired hfRPE tissues with matched RT values were incubated for 4-24 hours with IFNγ or CHX. The subsequent changes in JV, RT, and TEP were measured in Ringer's solution or serum free cell culture media as previously described in Shi, G., et al., Invest Ophthalmol Vis Sci, 2008 and Maminishkis, A., et al., Invest Ophthalmol Vis Sci, 2006, 47, 3612-3624, each incorporated herein by reference in its entirety. Intracellular levels of NO were elevated with 1-Hydroxy-2-oxo-3-(3-aminopropyl)-3-isopropyl-1-triazene (NOC-5, Enzo Life Sciences, Plymouth, Pa.). 8-Br-cGMP was purchased from Sigma-Aldrich.

[3] = tested on: hfRPE monolayers; assay: electrophysiology of hfRPE monolayers (TEP, RT, VA, VB, RA/RB); format: cell-based, human
Text: Equivalent circuit analysis and electrophysiological methods have been previously described in Quinn, R. H., et al., Invest Ophthalmol Vis Sci, 1992, 33, 3513-3527; Joseph D. P., et al., J Physiol, 1991, 435, 439-463; and Maminishkis, A., et al., 2006, Ophthalmol Vis Sci, 47, 3612-3624each incorporated herein by reference in its entirety.
Briefly, confluent monolayers of cultured hfRPE were mounted on a nylon mesh support and clamped into a modified Üssing chamber that allowed the rapid exchange of Ringer's solution (≈10 chamber volumes per minute) and the measurement of fast electrical changes in seconds. The electrical connections to the apical and basal chambers were made with Ringer-agar bridges in series with calomel electrodes. Intracellular potentials were recorded with conventional microelectrodes, back-filled with 150 mM KCl, with resistances of 80 to 200 Ma The apical and basolateral membrane potentials (VA and VB) are calculated as the voltage differences between the intracellular microelectrode and the apical and basal bath electrodes, respectively. The resistances of the apical and basolateral membranes were designated RA and RB, respectively, and the transepithelial potential (TEP=VB-VA) is the voltage difference between the apical and basal bath electrodes. Epithelial resistance parameters were obtained by passing 4-μA bipolar current pulses (i) using Ag—AgCl electrodes, one located in the apical chamber and the other located in the basal chamber. The total transepithelial resistance (Rt) is calculated from the current-induced changes in TEP (Rt=ΔTEP/i). The apparent membrane resistance ratio (RA/RB) is calculated from the ratio of change in VA to change in VB (RA/RB=ΔVA/ΔVB).
The control Ringer's solution for measurements of TEP and Rt in culture hfRPE contained 116 mM NaCl, 5 mM KCl, 26.2 mM NaHCO3, 1 mM NaH2PO4, 1 mM Mg Cl2, 1.8 mM CaCl2, 10 mM glucose, and 2 mM Taurine. The osmolarity of control Ringer's solution was 295 mOsm. The solutions were maintained at 35° C. and a pH of 7.4, and were bubbled with 10% O2, 5% CO2 and 85% N2. 8-Bromo-cAMP (or Dibutyryl cAMP), 8-Br-cGMP, and forskolin were obtained from Sigma-Aldrich.

[4] = tested on: rat RPE; assay: in vivo retinal re-attachment assay (OCT)
Experimental: All animal experiments were conducted in compliance with the ARVO Statement for the use of Animals in Ophthalmic and Vision Research, and the protocol was approved by the Animal Care and Use Committee of the National Institutes of Health. The procedures have been described in detail in Maminishkis, A., et al., Invest Ophthalmol Vis Sci, 2006, 47, 3612-3624, incorporated by reference in its entirety herein. Briefly, retinal detachments were created in long-Evans rats by injecting 0.5 to 3 μl of modified phosphate-buffered saline (MPBS) Ringer's solution into the sub-retinal space (SRS), which separates the photoreceptor outer segments and the apical membrane of the RPE. In the control portion of each experiment (at 0-70 minutes after creation of the retinal detachment), the rate of change of bleb volume was measured. The control period of “constant” volume was defined by JV≦2 μl hr cm over at least 40 minutes. Any control injections that exceeded this threshold rate were rejected from subsequent analysis.
IFNγ was dissolved in MPBS, mixed with Celluvisc® solution (1:1) and applied as eye-drops (0.4 mL). Optical coherence tomography (OCT) imaging (Institute of Applied Physics, Russian Academy of Science, Nizhniy Novgorod, Russia) was used to measure the time course of the detachment volume change.
A previously tested in vivo rodent model of retinal detachment was used to measure the effect of IFNγ on re-absorption following retinal detachment, as described in Example 11 and in Maminishkis, A., et al., Invest Ophthalmol Vis Sci, 2002, 43, 3555-3566, incorporated herein by reference in its entirety. Initial detachment was created by injecting approximately 1 μl of osmotically-balanced, modified phosphate-buffered saline (MPBS) Ringer's solution into the extracellular space, i.e. the sub-retinal space (SRS). After stabilization of the detachment, IFNγ (40 μl of 100 ng/ml) was added to the anterior surface of the eye via eye drops (Celluvisc®). A series of 3D OCT images were recorded at different time points.

[5] = tested on: hfRPE cells; assay: wound healing assay, hfRPE migration; format: cell-based, human; settings: 48 hours, proliferation suppressed with mitomycin C
Experimental: The wound healing assay was used to study the effects of inflammatory cytokines on hfRPE cell migration, as described previously in Li, R., et al. Invest Ophthalmol Vis Sci, 2007, 48, 5722-5732, incorporated herein by reference in its entirety. Cell proliferation was suppressed by incubation with 10 μg/ml mitomycin C (Sigma) for 2 hours before all migration experiments. A circular denuded area (7 mm in diameter) was made in each well using a custom designed cell scraper. After incubation with various inflammatory cytokines for 48 hours, cells were fixed with cold methanol and stained with ethidium homodimer-1 (EthD-1, Invitrogen) according to the manufacturer's instructions. Cell migration was quantified by counting the average number of cells that migrated into the denuded area in 16 microscope fields surrounding the circumference of the denuded area. Each condition was tested in triplicate and repeated using cells from different donors.

[6] = tested on: hfCHC cells; assay: BrdU incorporation assay, human fetal choroidal cell proliferation; format: cell-based
[7] = CFTRinh−172 basal bath after IFNγ

`N#C/C(=C\c1ccc(O)c(O)c1)C(=O)NCc1ccccc1` [AG490, reference compound] was tested, and the “effect on the IFNγ effect on hfRPE proliferation” value (shortened to “effect on the IFNγ effect”) [1] was “block”.
With `O=C(O)c1ccc(/C=C2\SC(=S)N(c3cccc(C(F)(F)F)c3)C2=O)cc1` [CFTRinh−172] the “effect on NOC-5 induced increase in Jv” value ([2]; CFTR inhibitor 5 μM basal bath, NOC-5 250 μM, n=3) was “blocked”, the “effect on IFNγ-induced fluid transport after H-89” value ([2]; CFTR inhibitor added after H-89) was “no further effect” and the “effect on JV after P38 MAPK inhibitor” value [2] was “further decrease”. The “effect on JV after P38 MAPK inhibitor” value ([2]; listed as CFTR inhibitor) was “further decreased”, the “decrease of the IFNγ-induced JV increase” value ([2]; CFTRinh−172 5 μM basal bath, FIG. 14E) was “≈ 9.8 μl·cm^−2·hr^−1” and the “mean JV after inhibitor in IFNγ-treated hfRPE” value ([2]; CFTRinh−172 5 μM, 11 experiments, from 16.6±1.2) was 6.8±1.0 μl·cm^−2·hr^−1. The “JV after inhibitor in 24 hour IFNγ-treated hfRPE” value ([2]; CFTRinh−172 5 μM, from 15.1, FIG. 14F) was 4.8 μl·cm^−2·hr^−1, the “decrease in JV” value ([2]; CFTRinh−172 added after IFNγ and basal DIDS, n=1) was 12.6 μl·cm^−2·hr^−1 and the “baseline JV after inhibitor” value ([2]; CFTRinh−172 basal bath, no IFNγ, baseline 12.5 ±3.1, n=5) was 3.2 ±1.0 μl·cm^−2·hr^−1. The “Jv after CFTR inhibitor in 8-Br-cGMP-treated hfRPE” value ([2]; FIG. 21, from 19.5) was 11.5 μl·cm^−2·hr^−1, the “Jv after CFTR inhibitor in 8-Br-cGMP-treated hfRPE” value ([2]; four experiments, from 15.8±1.6) was 8.9±1.3 μl·cm^−2·hr^−1 and the “effect on cAMP-induced electrical changes” value ([3]; CFTRinh−172) was “blocked”. For the same compound, the “effect on RA/RB” value [3, 7] was “slight decrease”, the “effect on RT” value [3, 7] was “increased” and the “effect on TEP” value [3, 7] was “decreased”. For the same compound, the “effect on both membrane potentials” value [3, 7] was “hyperpolarize”.
With `COc1cc2ncnc(Nc3ccc(O)c(Br)c3)c2cc1OC` [JAK3, reference compound] the “effect on the IFNγ effect” value [1] was “not”.
For `Nc1ncnc2c1nc(Br)n2C1OC2COP(O)(=S)OC2C1O` (stereo not shown) [Rp-8-Br-cAMPS], the “reduction in IFNγ-induced absorption rate” value ([4]; PKA inhibitor alone injected into subretinal space, FIG. 23D) was roughly 40%, the “effect on IFNγ induced decrease in detachment volume” value ([4]; pre-injection of 50 μM PKA inhibitor alone) was “partially blocked” and the “effect on the effects of IFNγ on JV” value [2] was “completely blocked”. For the same compound, the “effect on the effects of IFNγ on JV” value ([2]; listed as Rp-8-Br-cAMPs) was “blocked”, the “effect on baseline JV” value ([2]; Rp-8-Br-cAMPS 2 μM, approximately 40 minutes) was “no effect” and the “JV after Rp-8-Br-cAMPS” value ([2]; six experiments, steady-state baseline 8.9±1.2) was 10.4±2.0 μl·cm^−2·hr^−1.
“IL-1β: inflammatory cytokine obtained from Peprotech; ICM component” was tested, and the “effect on hfRPE cell migration” value [5] was “no significant effect”, the “effect on hfRPE proliferation (BrdU incorporation)” value [1] was “no significant effect” and the “effect on hfCHC (human fetal choroidal) cell proliferation” value [6] was “significantly stimulated”.
JAK inhibitor I was tested, and the “effect on the IFNγ effect” value [1] was “block”, the “effect on base level of fluid transport (JV)” value ([2]; JAK inhibitor I 5 μM alone) was “no significant effect” and the “effect on IFNγ increase in JV” value ([2]; JAK inhibitor I 5 μM, 0.5-1 hours prior to IFNγ) was “significantly blocked”.
With TNFα the “effect on hfRPE cell migration” value [5] was “no significant effect”, the “effect on hfRPE proliferation (BrdU incorporation)” value [1] was “weak stimulatory effect” and the “concentration at which the stimulatory effect reached statistical significance” value ([1]; P <0.05) was 80 ng/mL. The “effect on hfCHC (human fetal choroidal) cell proliferation” value [6] was “significantly stimulated”.
